Results taken from article PMC7297445, “Pharmacokinetic/Pharmacodynamic Determination and Preclinical Pharmacokinetics of the β-Lactamase Inhibitor ETX1317 and Its Orally Available Prodrug ETX0282” (ACS Infectious Diseases, 2020).

Key:
[1] = test system: K. pneumoniae ARC4488; assay: Hollow-fiber infection model (HFIM), dose fractionation; assay type: cell-based; conditions: with CPD
Procedure: (§1) The PK/PD driver of ETX1317 was assessed in the presence of CPD in both hollow-fiber[28]−[31] and chemostat[32]in vitro infection model systems. In all cases, CPD was administered q12h via a 2 h infusion and eliminated with a 2 h half-life, with the concentration of drug exceeding the MIC (the MIC of CPD in the presence of ETX1317 at a 1:2 ratio) for 50% of the dosing interval for each strain. Representative Emax plots are shown graphically for Escherichia coli ARC2687 in the hollow-fiber model and Klebsiella pneumoniae ARC4420 in the chemostat system (Figure 2). […] This could partially be attributed to the distribution of the concentration ranges utilized for the hollow-fiber infection model (HFIM) where most of the data scatter occurred in the efficacious dose range for lower MIC strains. It is important to note that initial evaluation of K. pneumoniae ARC4420 and ARC5118 was completed in the HFIM but rapid degradation of CPD, presumably through accumulation of β-lactamases in the extra-capillary space of the cartridge precluded a reliable assessment of the PK/PD driver with these strains in this model.[32] […] In both the HFIM and chemostat models the optimum critical threshold of ETX1317 was established through iterative Emax fitting of a range of ETX1317 concentrations from 0.5× to 2× the CPD:ETX1317 MIC value. In the HFIM, %Time > ETX1317 CT of 2× MIC provided the highest correlation to observed activity which appeared to be independent to the apparent intrinsic activity of ETX1317 (as reflected by ETX1317 MICBLI of K. pneumoniae ARC4486 vs ARC4488). […] In both models CPD infused alone mimicked vehicle control as expected with similar growth of +2 to 4 log10 CFU/mL.
(§2) Enterobacteriaceae isolates E. coli ARC2687 and K. pneumoniae isolates ARC4486, ARC4488, ARC5118, and ARC4420 were prepared for infection from an overnight plate culture. On the day of the experiment, a few colonies of bacteria were inoculated in Mueller Hinton Broth II (MHBII, Sigma-Aldrich, St. Louis, MO) and incubated at 35 °C until reaching log-phase growth, about 1 h. In hollow-fiber studies cell population density is confirmed by turbidimetric assay (OD600) and final dilution is adjusted to deliver approximately 15 mL of bacteria (1 × 10^6 CFU/mL) to the extra-capillary space of the hollow-fiber cartridge (Fibercell Systems, Inc., Frederick, MD). After 1 h, targeted drug concentrations were introduced using a 2 h infusion via a syringe pump (Harvard Apparatus, Holliston, MA). For chemostat experiments approximately 1 mL of bacteria (1 × 10^8 CFU/mL) were introduced to the chemostat reservoir bottle with 100 mL MHBII to dilute bacterial culture and reach a target CFU density of 1 × 10^6 CFU/mL. After 5 min, each chemostat bottle was exposed to targeted drug with a 2 h infusion administered via syringe pump.
(§3) ETX1317 and CPD were dissolved in MHBII (accounting for potency) and delivered as a 2 h infusion via syringe pump (Harvard Apparatus, Holliston, MA). Solubility and stability were confirmed at room temperature for the experiment. Dose formulation potency was verified by LC/MS/MS.
(§4) Dose range and dose fractionation were performed in hollow-fiber infection model (HFIM) and chemostat (one-compartment) in vitro infection model. Bacteria treated with media only (growth control) and dose arms spanning a 64-fold exposure range of drug delivered within regimens of q6h, q12h, and q24h were used. E. coli ARC2687 and K. pneumoniae ARC4486 and ARC4488 were completed in the HFIM. K. pneumoniae ARC5118 and ARC4420 were studied in the chemostat system. CPD concentrations were targeted to achieve exposure of ∼50%Time > MIC determined in the presence of ETX1317. Both CPD and ETX1317 were administered via a 2 h infusion from syringe pumps (Harvard Apparatus) to mimic the approximate Cmax following oral absorption observed clinically for CDP. […]

[2] = test system: K. pneumoniae ARC4486; assay: as above; assay type: cell-based; conditions: with CPD
Procedure: as §1, §2, §3, §4

[3] = test system: E. coli ARC2687; assay: as above; assay type: cell-based; conditions: with CPD
Procedure: as §1, §2, §3, §4

[4] = Plasma protein binding; assay type: in vitro ADME, dog
Procedure: (§5) Plasma protein binding was determined by rapid equilibrium dialysis. Plasma was freshly prepared from blood samples drawn in to EDTA (anticoagulant) containing tubes. Plasma was prepared using a table-top centrifuge and spun per instruction of the tube manufacturer and specifications (Beckton, Dickinson and Company, Franklin Lakes, NJ) and placed on ice prior to use.
(§6) Pooled plasma samples were centrifuged at 2000 rpm (approximately 1400g) for 15 min at 4 °C to remove debris. Approximately 90% of the clear supernatant fraction was transferred to a separate tube. Samples (500 μL) were then spiked with a 100× stock solution 100 μM, 0.5 mM, and 10 mM ETX1317 in DMSO respectively for 1, 5, and 100 μM final concentrations, transferred to the top of the filter chambers, and allowed to equilibrate for 15 min prior to centrifugation. The filtrate tubes were centrifuged at 14000g for 15 min at 4 °C. Next, 50 μL of the filtrate was precipitated with 300 μL of acetonitrile containing 250 ng/mL of carbutamide as the internal standard and the samples were analyzed by LC/MS/MS analysis.

[5] = Mouse oral pharmacokinetics (satellite infected animals); assay type: in vivo
[6] = Plasma protein binding across species; assay type: in vitro ADME, monkeys, humans, mice, rats, and dogs; conditions: monkey, human, mouse, rat, dog, range across species, 1 to 100 μM
Procedure: Intravenous and oral pharmacokinetics of ETX1317 and ETX0282 in preclinical species are summarized in Table 7 and Table S1, respectively. Time vs concentration profiles are depicted graphically in Figure S1.
as §5, §6

[7] = test system: K. pneumoniae ARC4420; assay: Chemostat in vitro infection model, dose fractionation; assay type: cell-based; conditions: with CPD
Procedure: as §1
as §2, with “For chemostat experiments approximately 1 mL of bacteria (1 × 10^8 CFU/mL) were introduced to the chemostat reservoir bottle with 100 mL MHBII to dilute bacterial culture and reach a target CFU density of 1 × 10^6 CFU/mL. After 5 min, each chemostat bottle was exposed to targeted drug with a 2 h infusion administered via syringe pump.” left out
(§7) Dose range and dose fractionation were performed in hollow-fiber infection model (HFIM) and chemostat (one-compartment) in vitro infection model. […] CPD concentrations were targeted to achieve exposure of ∼50%Time > MIC determined in the presence of ETX1317. […]

[8] = test system: K. pneumoniae ARC5118; assay: as above; assay type: cell-based; conditions: with CPD
Procedure: as §1
as §2, with “For chemostat experiments approximately 1 mL of bacteria (1 × 10^8 CFU/mL) were introduced to the chemostat reservoir bottle with 100 mL MHBII to dilute bacterial culture and reach a target CFU density of 1 × 10^6 CFU/mL. After 5 min, each chemostat bottle was exposed to targeted drug with a 2 h infusion administered via syringe pump.” left out
as §7

[9] = unbound ETX1317 after oral ETX0282 10 mg/kg
[10] = unbound ETX1317 after oral ETX0282 50 mg/kg
[11] = unbound ETX1317 after oral ETX0282 200 mg/kg
[12] = unbound ETX1317 after oral ETX0282 400 mg/kg

Compound: CC1=C[C@@H](C(N)=O)N2C[C@@H]1N(O[C@H](F)C(=O)O)C2=O [ETX1317]
- %Time > CT of 1 μg/mL for 1–log10 kill [1]: 47%
- %Time > CT of 1 μg/mL for stasis [1]: 43%
- %Time > CT of 1 μg/mL for 1–log10 kill [2]: 49%
- %Time > CT of 1 μg/mL for stasis [2]: 37%
- %Time > CT of 1 μg/mL for 1–log10 kill [3]: 14%
- %Time > CT of 1 μg/mL for stasis [3]: 7%
- Proportion unbound ([4]; 1 µM): 92%
- Proportion unbound ([4]; 5 µM): 100%
- Proportion unbound ([4]; 100 µM): 81%
- half-life ([5]; mouse, in vivo, mice, once formed from ETX0282): 1.3 h
- %Time > f[CT] 0.25 μg/mL ([5]; oral ETX0282 10 mg/kg): 47%
- %Time > f[CT] 0.5 μg/mL ([5]; oral ETX0282 10 mg/kg): 25%
- %Time > f[CT] 1.0 μg/mL ([5]; oral ETX0282 10 mg/kg): 12%
- %Time > f[CT] 2.0 μg/mL ([5]; oral ETX0282 10 mg/kg): 8%
- %Time > f[CT] 0.25 μg/mL ([5]; oral ETX0282 50 mg/kg): 88%
- %Time > f[CT] 0.5 μg/mL ([5]; oral ETX0282 50 mg/kg): 50%
- %Time > f[CT] 1.0 μg/mL ([5]; oral ETX0282 50 mg/kg): 29%
- %Time > f[CT] 2.0 μg/mL ([5]; oral ETX0282 50 mg/kg): 28%
- %Time > f[CT] 0.25 μg/mL ([5]; oral ETX0282 200 mg/kg): 100%
- %Time > f[CT] 0.5 μg/mL ([5]; oral ETX0282 200 mg/kg): 100%
- %Time > f[CT] 1.0 μg/mL ([5]; oral ETX0282 200 mg/kg): 58%
- %Time > f[CT] 2.0 μg/mL ([5]; oral ETX0282 200 mg/kg): 35%
- %Time > f[CT] 0.25 μg/mL ([5]; oral ETX0282 400 mg/kg): 100%
- %Time > f[CT] 0.5 μg/mL ([5]; oral ETX0282 400 mg/kg): 100%
- %Time > f[CT] 1.0 μg/mL ([5]; oral ETX0282 400 mg/kg): 75%
- %Time > f[CT] 2.0 μg/mL ([5]; oral ETX0282 400 mg/kg): 38%
- fAUClast [5, 9]: 4.7 µg·h/mL
- fCmax [5, 9]: 3.9 µg/mL
- fAUClast [5, 10]: 23 µg·h/mL
- fCmax [5, 10]: 21 µg/mL
- fAUClast [5, 11]: 61 µg·h/mL
- fCmax [5, 11]: 57 µg/mL
- fAUClast [5, 12]: 73 µg·h/mL
- fCmax [5, 12]: 90 µg/mL
- fraction unbound at 15 min [6]: 0.77 to 1
- %Time > CT of 1 μg/mL for 1–log10 kill [7]: 63%
- %Time > CT of 1 μg/mL for stasis [7]: 59%
- %Time > CT of 1 μg/mL for 1–log10 kill [8]: 65%
- %Time > CT of 1 μg/mL for stasis [8]: 60%
